Measurements published in ChEMBL document CHEMBL1137817, “Potential antitumor-promoting diterpenes from the cones of Pinus luchuensis” (J Nat Prod, 2002).

Tests used:
Assay type in all cases: cell-based
Raji [1] = assay: Inhibition of 12-O-tetradecanoylphorbol 13-acetate-induced Epstein-Barr virus early antigen activation in human Raji cells assessed as EA induction at 500 mol ratio relative to TPA; set-up: scale not given: the % may be the effect or the level left; settings: human gammaherpesvirus 4
Raji [2] = assay: Inhibition of 12-O-tetradecanoylphorbol 13-acetate-induced Epstein-Barr virus early antigen activation in human Raji cells assessed as EA induction at 100 mol ratio relative to TPA; set-up: scale not given: the % may be the effect or the level left; settings: human gammaherpesvirus 4
[3] = Cytotoxicity against human Raji cells assessed as cell viability at 1000 molar ratio after 48 hours relative to TPA; settings: read-out: Activity
Raji [4] = assay: Inhibition of 12-O-tetradecanoylphorbol 13-acetate-induced Epstein-Barr virus early antigen activation in human Raji cells assessed as EA induction at 1000 mol ratio relative to TPA; set-up: scale not given: the % may be the effect or the level left; settings: human gammaherpesvirus 4
Raji [5] = assay: Inhibition of 12-O-tetradecanoylphorbol 13-acetate-induced Epstein-Barr virus early antigen activation in human Raji cells assessed as EA induction at 10 mol ratio relative to TPA; set-up: scale not given: the % may be the effect or the level left; settings: human gammaherpesvirus 4

Structure (SMILES) | Activity (Raji [1]) [%] | Activity (Raji [2]) [%] | viability at 48 h, 1000 molar ratio relative to TPA [3] [%] | Activity (Raji [4]) [%] | Activity (Raji [5]) [%]
C=C1CC[C@@H]2[C@](C)(CCC[C@]2(C)C(=O)O)[C@H]1C/C=C(\C)C(=O)O | 47.1 | 74.4 | 60 | 5 | 93.4
C=C1CC[C@@H]2[C@](C)(CCC[C@]2(C)C(=O)O)[C@H]1C/C=C(\C)C=O | 31.4 | 68.5 | 70 | 0 | 91.4
C=C/C(C)=C/C[C@H]1C(=C)CC[C@@H]2[C@]1(C)CCC[C@]2(C)C(=O)O | 46.2 | 75.3 | 60 | 4.4 | 90.5
CC1=C(/C=C/C(C)=C/C=C/C(C)=C/C=C/C=C(C)/C=C/C=C(C)/C=C/C2=C(C)CCCC2(C)C)C(C)(C)CCC1 [BETA CAROTENE] | 34 | 82 | 90 | 9 | 100
CC(C)c1ccc2c(c1)CC[C@H]1[C@](C)(C(=O)O)CCC[C@]21C [DEHYDROABIETIC ACID] | 32.7 | 69.8 | 70 | 2.9 | 97.9
C=C[C@]1(C)C=C2CC[C@@H]3[C@](C)(CCC[C@@]3(C)C(=O)O)[C@H]2CC1 [SANDARACOPIMARIC ACID] | 22.5 | 70.4 | 70 | 0 | 91.9
